Reference: patent US6416991B1, “Human cyclic nucleotide PDES” (Incyte Genomics, Inc., priority 1999, dated 2002)

Experiments:
[1] = biological target: T1, HSPDE10A1 (Homo sapiens, UniProt Q9HCR9); experiment: Inhibition of HSPDE10A1 PDE activity, scintillation proximity assay with cGMP as substrate
[2] = tested on: PDEs (non-selective); settings: range observed for other PDEs; read-out: Selective for PDE type (IC50): non-selective; cited from earlier work
[3] = tested on: PDE3; settings: read-out: Selective for PDE type (IC50): PDE3; cited from earlier work
[4] = tested on: PDE4; settings: read-out: Selective for PDE type (IC50): PDE4; cited from earlier work
[5] = biological target: T1, HSPDE10A1; experiment: HSPDE10A1 enzyme kinetics (Km, Vmax) with cAMP and cGMP as substrates; settings: substrate 0.15-10 μM, Michaelis-Menten plot

T1 sequence (Q9HCR9 445-933): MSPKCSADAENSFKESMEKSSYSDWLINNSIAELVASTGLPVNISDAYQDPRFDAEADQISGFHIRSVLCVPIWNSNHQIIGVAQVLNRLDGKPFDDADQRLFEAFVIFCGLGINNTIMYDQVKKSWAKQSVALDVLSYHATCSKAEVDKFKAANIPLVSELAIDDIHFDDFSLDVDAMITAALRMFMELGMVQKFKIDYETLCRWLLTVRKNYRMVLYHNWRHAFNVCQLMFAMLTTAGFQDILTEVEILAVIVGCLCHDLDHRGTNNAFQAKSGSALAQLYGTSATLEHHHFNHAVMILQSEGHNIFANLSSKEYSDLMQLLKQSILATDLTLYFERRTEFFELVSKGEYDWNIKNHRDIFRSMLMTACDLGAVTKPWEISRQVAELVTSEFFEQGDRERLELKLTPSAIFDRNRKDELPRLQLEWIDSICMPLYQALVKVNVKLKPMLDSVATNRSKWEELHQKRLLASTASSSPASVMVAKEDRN

SMILES: CC(C)Cn1c(=O)n(C)c(=O)c2[nH]cnc21 [IBMX, 3-isobutyl1-methylxanthine]
- IC50 [1]: 40 µM
- IC50 [2]: 2 to 50 µM

SMILES: Cc1[nH]c(=O)c(C#N)cc1-c1ccncc1 [Milrinone]
- IC50 [1]: > 200 µM
- IC50 [3]: 1 µM

SMILES: COc1ccc(C2CNC(=O)C2)cc1OC1CCCC1 (centres unmarked) [Rolipram]
- IC50 [1]: 160 µM

SMILES: Nc1nc2c(ncn2[C@@H]2O[C@@H]3COP(=O)(O)O[C@H]3[C@H]2O)c(=O)[nH]1 [cGMP]
- Km ([5]; read-out: Km for HSPDE10A1): 0.52 µM
- Vmax (rate of hydrolysis by HSPDE10A1) [5]: 0.21 μmole/min/ml enzyme
